In PubChem BioAssay (NCI):
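Dose response: 5 concentrations. Exposure: 48 h. Format: 96-well plates. Endpoint: linear interpolation; highest concentration if not reached. TGI is the concentration that stops growth completely.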

What was measured:
Assay in all cases: NCI-60 cell line screen, 48 h
[1] = test system: OVCAR-5 ovarian
[2] = test system: HOP-62 NSCLC
[3] = test system: OVCAR-4 ovarian
[4] = test system: KM12 colon
[5] = test system: M14 melanoma
[6] = test system: CAKI-1 renal
[7] = test system: COLO 205 colon
[8] = test system: SR leukemia
[9] = test system: A498 renal
[10] = test system: IGROV1 ovarian
[11] = test system: MDA-N
[12] = test system: UACC-257 melanoma
[13] = test system: SK-MEL-28 melanoma
[14] = test system: RPMI-8226 leukemia
[15] = test system: SK-OV-3 ovarian
[16] = test system: LOX IMVI melanoma
[17] = test system: SK-MEL-2 melanoma
[18] = test system: NCI/ADR-RES ovarian
[19] = test system: OVCAR-8 ovarian
[20] = test system: MALME-3M melanoma
[21] = test system: SNB-19 CNS
[22] = test system: NCI-H226 lung
[23] = test system: PC-3 prostate
[24] = test system: SF-268 CNS
[25] = test system: SK-MEL-5 melanoma
[26] = test system: A549 NSCLC
[27] = test system: HCT-116 colon
[28] = test system: MDA-MB-435
[29] = test system: CCRF-CEM leukemia
[30] = test system: TK-10 renal
[31] = test system: SN12C renal
[32] = test system: RXF 393 renal
[33] = test system: NCI-H460 lung
[34] = test system: HS 578T breast
[35] = test system: SF-295 CNS
[36] = test system: SNB-75 CNS
[37] = test system: 786-0 renal
[38] = test system: ACHN renal
[39] = test system: T-47D breast
[40] = test system: OVCAR-3 ovarian
[41] = test system: DU-145 prostate
[42] = test system: NCI-H23 lung
[43] = test system: SW-620 colon
[44] = test system: UO-31 renal
[45] = test system: U251 CNS
[46] = test system: NCI-H522 lung
[47] = test system: MOLT-4 leukemia
[48] = test system: SF-539 CNS
[49] = test system: UACC-62 melanoma
[50] = test system: HT29 colon
[51] = test system: HOP-92 NSCLC
[52] = test system: BT-549 breast
[53] = test system: HCT-15 colon
[54] = test system: EKVX NSCLC
[55] = test system: HCC-2998 colon
[56] = test system: K-562 leukemia
[57] = test system: MDA-MB-231 breast
[58] = test system: HL-60(TB) leukemia

Structure (SMILES): CN(C)c1nc2n(CCO)ccnc-2c(=O)n1
- TGI [1]: > 100 µM
- TGI [2]: > 100 µM
- TGI [3]: > 100 µM
- TGI [4]: > 100 µM
- TGI [5]: > 100 µM
- TGI [6]: > 100 µM
- TGI [7]: > 100 µM
- TGI [8]: > 100 µM
- TGI [9]: > 100 µM
- TGI [10]: > 100 µM
- TGI [11]: > 100 µM
- TGI [12]: > 100 µM
- TGI [13]: > 100 µM
- TGI [14]: > 100 µM
- TGI [15]: > 100 µM
- TGI [16]: > 100 µM
- TGI [17]: > 100 µM
- TGI [18]: > 100 µM
- TGI [19]: > 100 µM
- TGI [20]: > 100 µM
- TGI [21]: > 100 µM
- TGI [22]: > 100 µM
- TGI [23]: > 100 µM
- TGI [24]: > 100 µM
- TGI [25]: > 100 µM
- TGI [26]: > 100 µM
- TGI [27]: > 100 µM
- TGI [28]: > 100 µM
- TGI [29]: > 100 µM
- TGI [30]: > 100 µM
- TGI [31]: > 100 µM
- TGI [32]: > 100 µM
- TGI [33]: > 100 µM
- TGI [34]: > 100 µM
- TGI [35]: > 100 µM
- TGI [36]: > 100 µM
- TGI [37]: > 100 µM
- TGI [38]: > 100 µM
- TGI [39]: > 100 µM
- TGI [40]: > 100 µM
- TGI [41]: > 100 µM
- TGI [42]: > 100 µM
- TGI [43]: > 100 µM
- TGI [44]: > 100 µM
- TGI [45]: > 100 µM
- TGI [46]: > 100 µM
- TGI [47]: > 100 µM
- TGI [48]: > 100 µM
- TGI [49]: > 100 µM
- TGI [50]: > 100 µM
- TGI [51]: > 100 µM
- TGI [52]: > 100 µM
- TGI [53]: > 100 µM
- TGI [54]: > 100 µM
- TGI [55]: > 100 µM
- TGI [56]: > 100 µM
- TGI [57]: > 100 µM

Structure (SMILES): c1ccc2c(c1)N[C@@H]1c3[nH]c4ccccc4c3CC[C@H]21
- TGI [1]: 29.4 µM
- TGI [2]: 26.9 µM
- TGI [4]: 30.7 µM
- TGI [5]: 26.4 µM
- TGI [6]: 38.6 µM
- TGI [7]: 27.9 µM
- TGI [9]: 32 µM
- TGI [10]: 20.9 µM
- TGI [11]: 39.2 µM
- TGI [12]: > 100 µM
- TGI [58]: 36.2 µM
- TGI [13]: 35.3 µM
- TGI [14]: 59 µM
- TGI [15]: 36.7 µM
- TGI [16]: 29.5 µM
- TGI [17]: 31.7 µM
- TGI [18]: 28 µM
- TGI [19]: 25.6 µM
- TGI [20]: 22.1 µM
- TGI [21]: 37.9 µM
- TGI [22]: 31.6 µM
- TGI [23]: 24.6 µM
- TGI [24]: 65.1 µM
- TGI [25]: 27.3 µM
- TGI [26]: 41.4 µM
- TGI [27]: 27.8 µM
- TGI [28]: 31.1 µM
- TGI [29]: 36.9 µM
- TGI [30]: > 100 µM
- TGI [31]: 28.5 µM
- TGI [32]: 32.6 µM
- TGI [33]: 33.9 µM
- TGI [34]: 25.9 µM
- TGI [35]: 29.7 µM
- TGI [36]: 22.8 µM
- TGI [37]: 28.5 µM
- TGI [38]: 68.1 µM
- TGI [39]: 76.2 µM
- TGI [40]: 27.3 µM
- TGI [41]: 35.3 µM
- TGI [42]: 33 µM
- TGI [43]: 33.3 µM
- TGI [44]: 37.2 µM
- TGI [45]: 27.2 µM
- TGI [46]: 24.2 µM
- TGI [47]: 42 µM
- TGI [48]: 31.4 µM
- TGI [49]: 31.6 µM
- TGI [50]: 29.7 µM
- TGI [51]: 30.6 µM
- TGI [52]: 37.7 µM
- TGI [53]: 65.3 µM
- TGI [54]: 37.2 µM
- TGI [56]: 27.8 µM
- TGI [57]: 29.9 µM

Structure (SMILES): COc1ccc2c(c1)C(=O)C1(C2)[C@H](c2ccccc2)C2C(=O)c3cc(OC)ccc3C2[C@H]1c1ccccc1 (some centres undefined)
- TGI [1]: > 100 µM
- TGI [2]: > 100 µM
- TGI [3]: > 100 µM
- TGI [4]: > 100 µM
- TGI [5]: > 100 µM
- TGI [6]: 5.63 µM
- TGI [7]: > 100 µM
- TGI [8]: > 100 µM
- TGI [9]: > 100 µM
- TGI [10]: > 100 µM
- TGI [11]: > 100 µM
- TGI [12]: > 100 µM
- TGI [58]: > 100 µM
- TGI [13]: > 100 µM
- TGI [14]: > 100 µM
- TGI [15]: > 100 µM
- TGI [16]: > 100 µM
- TGI [18]: > 100 µM
- TGI [19]: > 100 µM
- TGI [20]: > 100 µM
- TGI [21]: > 100 µM
- TGI [22]: > 100 µM
- TGI [23]: > 100 µM
- TGI [24]: > 100 µM
- TGI [25]: > 100 µM
- TGI [26]: > 100 µM
- TGI [27]: > 100 µM
- TGI [28]: > 100 µM
- TGI [29]: > 100 µM
- TGI [30]: > 100 µM
- TGI [31]: > 100 µM
- TGI [32]: > 100 µM
- TGI [33]: > 100 µM
- TGI [34]: > 100 µM
- TGI [35]: > 100 µM
- TGI [36]: > 100 µM
- TGI [37]: > 100 µM
- TGI [38]: > 100 µM
- TGI [39]: > 100 µM
- TGI [40]: > 100 µM
- TGI [41]: > 100 µM
- TGI [42]: > 100 µM
- TGI [43]: > 100 µM
- TGI [44]: > 100 µM
- TGI [45]: > 100 µM
- TGI [46]: > 100 µM
- TGI [47]: > 100 µM
- TGI [48]: > 100 µM
- TGI [49]: > 100 µM
- TGI [50]: > 100 µM
- TGI [51]: > 100 µM
- TGI [52]: > 100 µM
- TGI [53]: > 100 µM
- TGI [54]: > 100 µM
- TGI [55]: > 100 µM
- TGI [56]: > 100 µM
- TGI [57]: > 100 µM
